{"source": "patent US5320960A", "about": "“Method of preparing solution enriched in xylanase using low molecular weight alcohol, organic salt and inorganic salt” (Genencor International, Inc., priority 1992, dated 1994)", "origin": "cited, not measured here", "molecular_target": "β-Glucosidase (BG) components of fungal cellulase", "conditions": "competitive inhibition; read-out: Ki (glucose)", "data": [{"smiles": "OC[C@H]1OC(O)[C@H](O)[C@@H](O)[C@@H]1O", "note": "(stereo partly shown) [glucose]", "values": [{"measurement": "Ki", "result": "~1000", "unit": "µM"}]}]}
